Experiments:
Acetylcholinesterase = Acetylcholinesterase (Homo sapiens, UniProt P22303); assay: Inhibition of AChE (unknown origin) using acetylthiocholine as substrate assessed as reduction of DTNB to TNB preincubated for 20 mins followed by addition of substrate by Ellman's kinetic method
[1] = target: T1, Cholinesterases; ACHE & BCHE (Homo sapiens) (UniProt P06276+P22303); assay: Selectivity ratio of IC50 for AChE (unknown origin) to IC50 for BChE (unknown origin) by Ellman's kinetic method
[2] = target: T1, Cholinesterases; ACHE & BCHE (Homo sapiens); assay: Selectivity ratio of IC50 for BChE (unknown origin) to IC50 for AChE (unknown origin) by Ellman's kinetic method
Cholinesterase = Cholinesterase (Homo sapiens, UniProt P06276); assay: Inhibition of BChE (unknown origin) using acetylthiocholine as substrate assessed as reduction of DTNB to TNB preincubated for 20 mins followed by addition of substrate by Ellman's kinetic method
Sequence of Cholinesterase (P06276 whole entry): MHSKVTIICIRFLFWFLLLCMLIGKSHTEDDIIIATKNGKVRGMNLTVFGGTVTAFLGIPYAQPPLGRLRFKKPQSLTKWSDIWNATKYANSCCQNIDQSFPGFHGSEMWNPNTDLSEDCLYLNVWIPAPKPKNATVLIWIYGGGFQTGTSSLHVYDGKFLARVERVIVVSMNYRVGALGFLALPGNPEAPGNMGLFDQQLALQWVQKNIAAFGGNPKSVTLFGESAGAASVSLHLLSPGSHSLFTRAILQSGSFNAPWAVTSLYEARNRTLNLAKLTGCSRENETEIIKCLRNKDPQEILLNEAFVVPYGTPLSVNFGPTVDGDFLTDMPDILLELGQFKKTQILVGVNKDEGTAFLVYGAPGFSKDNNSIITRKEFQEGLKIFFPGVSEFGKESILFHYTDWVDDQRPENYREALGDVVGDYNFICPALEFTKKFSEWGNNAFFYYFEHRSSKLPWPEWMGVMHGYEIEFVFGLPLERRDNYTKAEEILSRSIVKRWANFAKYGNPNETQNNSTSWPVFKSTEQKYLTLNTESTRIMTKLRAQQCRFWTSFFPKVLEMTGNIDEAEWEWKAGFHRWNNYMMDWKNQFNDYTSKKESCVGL

T1 sequence (P06276 whole entry, looked up): as the sequence (P06276 whole entry) above
T1 sequence (P22303 whole entry, looked up): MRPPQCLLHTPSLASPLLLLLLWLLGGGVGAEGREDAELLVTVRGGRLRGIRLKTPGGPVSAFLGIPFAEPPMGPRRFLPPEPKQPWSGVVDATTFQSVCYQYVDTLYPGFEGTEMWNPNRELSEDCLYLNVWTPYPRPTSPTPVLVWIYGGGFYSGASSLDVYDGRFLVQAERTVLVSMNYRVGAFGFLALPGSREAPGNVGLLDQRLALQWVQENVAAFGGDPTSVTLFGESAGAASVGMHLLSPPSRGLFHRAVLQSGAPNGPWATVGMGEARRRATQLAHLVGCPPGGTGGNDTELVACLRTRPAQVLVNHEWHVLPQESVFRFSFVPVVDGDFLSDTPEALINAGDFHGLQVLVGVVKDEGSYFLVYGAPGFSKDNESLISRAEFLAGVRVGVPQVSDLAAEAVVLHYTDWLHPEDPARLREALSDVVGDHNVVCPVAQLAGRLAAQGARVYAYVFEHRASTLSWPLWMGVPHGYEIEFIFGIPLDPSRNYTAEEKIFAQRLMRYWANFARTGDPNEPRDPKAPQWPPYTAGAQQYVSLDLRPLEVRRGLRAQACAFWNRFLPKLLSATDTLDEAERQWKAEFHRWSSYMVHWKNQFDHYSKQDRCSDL
Sequence of Acetylcholinesterase (P22303 whole entry): as the sequence (P22303 whole entry, looked up) above

N#CC1=C(N)N2CCCNC2=C([N+](=O)[O-])C12C(=O)Nc1ccccc12 (stereo not drawn)
IC50 (Acetylcholinesterase): 1.02 µM | Ratio IC50 [1]: 0.114 | Ratio IC50 [2]: 8.76 | IC50 (Cholinesterase): 8.93 µM

Cc1ccc2c(c1)C1(C(=O)N2)C(C#N)=C(N)N(Cc2ccccc2)C(NCc2ccccc2)=C1[N+](=O)[O-] (stereo not drawn)
IC50 (Acetylcholinesterase): 3.71 µM | Ratio IC50 [1]: 0.275 | Ratio IC50 [2]: 3.64 | IC50 (Cholinesterase): 13.5 µM

N#CC1=C(N)N2CCCNC2=C([N+](=O)[O-])C12C(=O)Nc1ccc(F)cc12 (stereo not drawn)
IC50 (Acetylcholinesterase): 0.42 µM | Ratio IC50 [1]: 0.029 | Ratio IC50 [2]: 35 | IC50 (Cholinesterase): 14.7 µM

COc1ccc2c3c1O[C@H]1CC(O)CC[C@@]31CCN(C)C2 (stereo partly drawn)
Ratio IC50 [1]: 0.196 | Ratio IC50 [2]: 5.12

Cc1ccc2c(c1)C1(C(=O)N2)C(C#N)=C(N)N2CCCNC2=C1[N+](=O)[O-] (stereo not drawn)
IC50 (Acetylcholinesterase): 0.94 µM | Ratio IC50 [1]: 0.076 | Ratio IC50 [2]: 13.1 | IC50 (Cholinesterase): 12.3 µM

CC1(C)CNC2=C([N+](=O)[O-])C3(C(=O)c4cccc5cccc3c45)C(C#N)=C(N)N2C1 (stereo not drawn)
IC50 (Acetylcholinesterase): 7.71 µM | Ratio IC50 [1]: 0.303 | Ratio IC50 [2]: 3.3 | IC50 (Cholinesterase): 25.4 µM

N#CC1=C(N)N2CCNC2=C([N+](=O)[O-])C12C(=O)Nc1ccc(F)cc12 (stereo not drawn)
IC50 (Acetylcholinesterase): 3.29 µM | Ratio IC50 [1]: 0.195 | Ratio IC50 [2]: 5.12 | IC50 (Cholinesterase): 16.8 µM

CC1(C)CNC2=C([N+](=O)[O-])C3(C(=O)Nc4ccccc43)C(C#N)=C(N)N2C1 (stereo not drawn)
IC50 (Acetylcholinesterase): 1.25 µM | Ratio IC50 [1]: 0.12 | Ratio IC50 [2]: 8.34 | IC50 (Cholinesterase): 10.4 µM

N#CC1=C(N)N2CCNC2=C([N+](=O)[O-])C12C(=O)c1cccc3cccc2c13 (stereo not drawn)
IC50 (Acetylcholinesterase): 7.08 µM | Ratio IC50 [1]: 0.298 | Ratio IC50 [2]: 3.36 | IC50 (Cholinesterase): 23.8 µM

N#CC1=C(N)N(Cc2ccccc2)C(NCc2ccccc2)=C([N+](=O)[O-])C12C(=O)c1cccc3cccc2c13 (stereo not drawn)
IC50 (Acetylcholinesterase): 5.96 µM | Ratio IC50 [1]: 0.25 | Ratio IC50 [2]: 4 | IC50 (Cholinesterase): 23.8 µM

N#CC1=C(N)N(Cc2ccccc2)C(NCc2ccccc2)=C([N+](=O)[O-])C12C(=O)Nc1ccc(F)cc12 (stereo not drawn)
IC50 (Acetylcholinesterase): 3.54 µM | Ratio IC50 [1]: 0.235 | Ratio IC50 [2]: 4.26 | IC50 (Cholinesterase): 15.1 µM

Cc1ccc2c(c1)C1(C(=O)N2)C(C#N)=C(N)N2CC(C)(C)CNC2=C1[N+](=O)[O-] (stereo not drawn)
IC50 (Acetylcholinesterase): 1.39 µM | Ratio IC50 [1]: 0.095 | Ratio IC50 [2]: 10.6 | IC50 (Cholinesterase): 14.7 µM

CC1(C)CNC2=C([N+](=O)[O-])C3(C(=O)Nc4ccc([N+](=O)[O-])cc43)C(C#N)=C(N)N2C1 (stereo not drawn)
IC50 (Acetylcholinesterase): 1.54 µM | Ratio IC50 [1]: 0.13 | Ratio IC50 [2]: 7.71 | IC50 (Cholinesterase): 11.9 µM

N#CC1=C(N)N2CCCNC2=C([N+](=O)[O-])C12C(=O)Nc1ccc([N+](=O)[O-])cc12 (stereo not drawn)
IC50 (Acetylcholinesterase): 1.15 µM | Ratio IC50 [1]: 0.092 | Ratio IC50 [2]: 10.8 | IC50 (Cholinesterase): 12.4 µM

Cc1ccc2c(c1)C1(C(=O)N2)C(C#N)=C(N)N2CCNC2=C1[N+](=O)[O-] (stereo not drawn)
IC50 (Acetylcholinesterase): 3.86 µM | Ratio IC50 [1]: 0.238 | Ratio IC50 [2]: 4.21 | IC50 (Cholinesterase): 16.2 µM

N#CC1=C(N)N2CCNC2=C([N+](=O)[O-])C12C(=O)Nc1ccccc12 (stereo not drawn)
IC50 (Acetylcholinesterase): 4.85 µM | Ratio IC50 [1]: 0.36 | Ratio IC50 [2]: 2.77 | IC50 (Cholinesterase): 13.5 µM

CC1(C)CNC2=C([N+](=O)[O-])C3(C(=O)c4ccc(Br)c5c(Br)ccc3c45)C(C#N)=C(N)N2C1 (stereo not drawn)
IC50 (Acetylcholinesterase): 5.98 µM | Ratio IC50 [1]: 0.251 | Ratio IC50 [2]: 3.98 | IC50 (Cholinesterase): 23.8 µM

N#CC1=C(N)N2CCNC2=C([N+](=O)[O-])C12C(=O)Nc1ccc([N+](=O)[O-])cc12 (stereo not drawn)
IC50 (Acetylcholinesterase): 3.24 µM | Ratio IC50 [1]: 0.23 | Ratio IC50 [2]: 4.34 | IC50 (Cholinesterase): 14.1 µM

CC1(C)CNC2=C([N+](=O)[O-])C3(C(=O)Nc4ccc(F)cc43)C(C#N)=C(N)N2C1 (stereo not drawn)
IC50 (Acetylcholinesterase): 1.07 µM | Ratio IC50 [1]: 0.067 | Ratio IC50 [2]: 14.9 | IC50 (Cholinesterase): 15.9 µM

N#CC1=C(N)N(Cc2ccccc2)C(NCc2ccccc2)=C([N+](=O)[O-])C12C(=O)Nc1ccc([N+](=O)[O-])cc12 (stereo not drawn)
IC50 (Acetylcholinesterase): 3.37 µM | Ratio IC50 [1]: 0.225 | Ratio IC50 [2]: 4.44 | IC50 (Cholinesterase): 15 µM

N#CC1=C(N)N2CCCNC2=C([N+](=O)[O-])C12C(=O)c1cccc3cccc2c13 (stereo not drawn)
IC50 (Acetylcholinesterase): 6.59 µM | Ratio IC50 [1]: 0.252 | Ratio IC50 [2]: 3.96 | IC50 (Cholinesterase): 26.1 µM

N#CC1=C(N)N2CCCNC2=C([N+](=O)[O-])C12C(=O)c1ccc(Br)c3c(Br)ccc2c13 (stereo not drawn)
IC50 (Acetylcholinesterase): 6.71 µM | Ratio IC50 [1]: 0.272 | Ratio IC50 [2]: 3.68 | IC50 (Cholinesterase): 24.7 µM

N#CC1=C(N)N(Cc2ccccc2)C(NCc2ccccc2)=C([N+](=O)[O-])C12C(=O)Nc1ccccc12 (stereo not drawn)
IC50 (Acetylcholinesterase): 3.96 µM | Ratio IC50 [1]: 0.259 | Ratio IC50 [2]: 3.86 | IC50 (Cholinesterase): 15.3 µM

N#CC1=C(N)N2CCNC2=C([N+](=O)[O-])C12C(=O)c1ccc(Br)c3c(Br)ccc2c13 (stereo not drawn)
IC50 (Acetylcholinesterase): 6.37 µM | Ratio IC50 [1]: 0.245 | Ratio IC50 [2]: 4.09 | IC50 (Cholinesterase): 26 µM

N#CC1=C(N)N(Cc2ccccc2)C(NCc2ccccc2)=C([N+](=O)[O-])C12C(=O)c1ccc(Br)c3c(Br)ccc2c13 (stereo not drawn)
IC50 (Acetylcholinesterase): 6.24 µM | Ratio IC50 [1]: 0.235 | Ratio IC50 [2]: 4.26 | IC50 (Cholinesterase): 26.6 µM

— ChEMBL document CHEMBL3763108, “Application of PEG-400 as a green biodegradable polymeric medium for the catalyst-free synthesis of spiro-dihydropyridines and their use as acetyl and butyrylcholinesterase inhibitors” (Bioorg Med Chem, 2016)
